Laboratory results as given in patent US9192589B2, “Chalcones as enhancer of antimicrobial agents” (priority 2009, dated 2015).
In brackets after ≈: the same amount, converted by molar mass. Read-outs that look alike come from different tables or passages of the source.

Key:
A. viscosus = test: MIC assay using A. viscosus as reference organism (96-well, OD610); type: cell-based; conditions: Actinomyces viscosus, compound alone, 0.5x TSB, overnight 37° C.
Experimental: (§1) Actinomyces viscosus (ATCC#43146) was grown in trypticase soy broth supplemented with 0.6% yeast extract (TSB-YE) at 37° C., static culture. For mixed species assays, the source of bacteria was a continuous culture chemostat inoculated with A. viscosus, Lactobacillus casei (ATCC #334), Streptococcus oxalis (ATCC #35037), Fusobacterium nucleatum (ATCC #10953), and Veilonella parvula (ATCC #17745). This mixed culture was maintained in a specialized complex medium in a continuous culture chemostat at 37° C.

A. Viscosus biofilm = test: Inhibition of single species biofilm formation (BEC50, crystal violet); type: cell-based, Actinomyces viscosus; conditions: 24 hours
Experimental: as §1
To assess the bioenhancing ability of CK-4, inhibition of single species biofilm formation tests were conducted. Actives of interest were plated in the first column of a sterile 384-well culture plate and serial twofold dilutions were performed across the plate in 0.5× TSB. First generation cultures of A. Viscosus bacteria were grown overnight in TSB-YE. Cultures were diluted to an OD610˜0.2 in 0.5×TSB and plated in the wells containing serial dilutions of actives. Plates were incubated for 24 hours at 37° C. to allow growth and biofilm formation to occur.
Following incubation, supernatants were removed from the plate and remaining biofilms were stained with 0.03% Grain's crystal violet. Stained plates were read on a Perkin Elmer EnVision microplate reader for absorbance at 590 nm.

[1] = test system: Streptococcus mutans, Actinomyces viscosus and Fusobacterium nucleatum; test: Fold reduction in MIC over the three oral bacteria; type: cell-based; conditions: in combination with CK-4; over S. mutans, A. viscosus and F. nucleatum
Text: (§2) The checkerboard method is the most frequently used method to access the antimicrobial combinations in vitro. The term “checkerboard” refers to the pattern (of tubes or microtiter plate wells) formed by multiple dilutions of two drugs being tested (Eliopoulos G M, Moellering R C. Antimicrobial Combinations, in: Antibiotics in Laboratory Medicine: USA: Williams & Wilkins). In the present study the checkerboard consisted of columns in which each tube (or well) contains the same amount of the standard drug (antibacterial/antifungal/anti-TB/antiviral) being diluted along the x-axis and rows in which each tube (or well) contains the same amount of the potentiator being diluted on the y-axis. As a result each square in the checkerboard (which represents one tube/well or plate) contained a unique combination of the standard drug and potentiator. The concentration range of standard drug in the present study was 64 μg/ml to 0.03 μg/ml, whereas the potentiator was tested in the range of 500 μg/ml to 0.2 μg/ml. This checkerboard technique can be performed with liquid or semisolid (agar) media.
(§3) In the agar method the agar (Mueller Hinton agar, Middlebrook 7H10 agar) was autoclaved and allowed to cool to 55° C. to 50° C. The combination of the standard drug and the potentiator was added to the agar. Serial two fold dilutions of each of standard drug and the potentiator were prepared in appropriate solvents. In order to maintain the desired concentrations of both agar and drugs, and to rule out the effect of solvent, the volume of solvent (containing standard drug or potentiator) added to agar was kept small (i.e. ≦5% of the total volume). After the agar plates have been poured and allowed to dry, the bacteria to be tested were applied to the surface of agar with a replicating device designed to deliver a standard inoculum (approx 10^4 cfu/spot). The plates were incubated at 37° C. for 24 hrs (3 weeks in case of Mycobacterium tuberculosis).
(§4) The above-mentioned checkerboard was also performed with liquid media in a microtiter plate format. This method was used to study the combination of antibacterial/antifungal/antiviral drugs with potentiator.
(§5) Minimum Inhibitory Concentration (MIC) of triclosan alone and in combination with the above mentioned chalcone compound was performed against Streptococcus mutans, Actinomyces viscosus and Fusobacterium nucleatum, using method described in the study design.
Minimum Inhibitory Concentration (MIC) of magnolol alone and in combination with the above mentioned chalcone compound was performed against Streptococcus mutans, Actinomyces viscosus and Fusobacterium nucleatum, using method described in the study design. […]

Fusobacterium nucleatum = test: MIC of antibacterial agents alone and in combination with CK-4; type: cell-based; conditions: F. nucleatum
Text: as §2, §3, §4, §5
(§6) Minimum Inhibitory Concentration (MIC) of magnolol alone and in combination with the above mentioned chalcone compound was performed against Streptococcus mutans, Actinomyces viscosus and Fusobacterium nucleatum, using method described in the study design.
(§7) Minimum Inhibitory Concentration (MIC) of honokiol alone and in combination with the above mentioned chalcone compound was performed against Streptococcus mutans, Actinomyces viscosus and Fusobacterium nucleatum, using method described in the study design.

Actinomyces viscosus = test: as above; type: cell-based; conditions: A. viscosus
Text: as §2, §3, §4, §5, §6, §7

Streptococcus mutans = test: as above; type: cell-based; conditions: S. mutans
Text: as §2, §3, §4, §5, §6, §7

SMILES | MIC (A. viscosus) | BEC50 alone (A. Viscosus biofilm; agent alone) | BEC50 with CK-4 (A. Viscosus biofilm; with CK-4) | reduction in MIC in combination with chalcone compound [1] | MIC (Fusobacterium nucleatum; with CK-4 6.25 μg/ml) | MIC (Fusobacterium nucleatum; with CK-4 12.5 μg/ml) | MIC (Fusobacterium nucleatum; with CK-4 25 μg/ml) | MIC (Fusobacterium nucleatum; Fusobacterium nucleatum, agent alone, read-out: MIC) | MIC (Actinomyces viscosus; with CK-4 6.25 μg/ml) | MIC (Actinomyces viscosus; with CK-4 12.5 μg/ml) | MIC (Actinomyces viscosus; with CK-4 25 μg/ml) | MIC (Actinomyces viscosus; Actinomyces viscosus, agent alone, read-out: MIC) | MIC (Streptococcus mutans; with CK-4 6.25 μg/ml) | MIC (Streptococcus mutans; with CK-4 12.5 μg/ml) | MIC (Streptococcus mutans; with CK-4 25 μg/ml) | MIC (Streptococcus mutans; Streptococcus mutans, agent alone, read-out: MIC)
COc1cc(/C=C/C(=O)c2ccccc2)ccc1O [CK-4, 3-(4′-Hydroxy-3′-methoxy-phenyl)-1-phenyl-prop-2-ene-1-one] | > 100 µg/mL |  |  |  |  |  |  |  |  |  |  |  |  |  |  | 
Oc1cc(Cl)ccc1Oc1ccc(Cl)cc1Cl [Triclosan, triclosan] | 3.5 µg/mL (≈ 12.1 µM) | 1.95 | 0.98 | Four to eight-fold | 1.0 µg/mL | 1.0 µg/mL | 0.5 µg/mL | 2 µg/mL | 2.0 µg/mL | 1.0 µg/mL | 0.5 µg/mL | 4 µg/mL | 2.0 µg/mL | 1.0 µg/mL | 0.5 µg/mL | 4 µg/mL
